What was measured:
[1] = Description: (§1) Modified Franz Diffusion Cells were filled with 55 ml of phosphate buffer, and a skin simulating membrane was placed in each cell at air-water interface and secured with a holed cap. The cells were placed into a water bath and the temperature was equilibrated to 38° C. The drug-loaded patch was gently placed onto the membrane and pressed down lightly. At different time points, the drug solution was collected and replaced with fresh buffer, and ultraviolet (UV) absorbance was measured at 200-300 nm with clean quartz cuvettes, using standard curves to determine drug concentrations and cumulative drug release percentages over time.
as §1, with “The permeation or flux of several drugs transdermally delivered to the skin was measured in vitro as a function of time using an artificial skin simulating membrane attached to a Franz diffusion cell at air-water interface. […] Modified” for “Modified”

[2] = Percentage diffusion of 4-aminopyridine through the transdermal drug delivery system over time; assay type: in vitro ADME
Description: The patch in the transdermal drug delivery system consisted of 23% (w/w) glycerol, 16% (w/w) gum Arabic, 11% (w/w) medium molecular weight chitosan, and […]. The patch was prepared by casting the liquid matrix gel upon a suitable Teflon backing layer and drying for 18 hours at 55° C. The resulting diffusion profiles were obtained by conducting the same experiment three times. The patch samples indicate the number of times that the same experiment was conducted.
The patch in the transdermal drug delivery system consisted of 50% (w/w) glycerol, 14% (w/w) PVP, 18% (w/w) medium molecular weight chitosan, and 18% (w/w) lactic acid. The patch was prepared by casting the liquid matrix gel upon a suitable Teflon backing layer and drying for 3 hours at 80° C. The resulting diffusion profiles were obtained by conducting the same experiment eight times. The patch samples indicate the number of times that the same experiment was conducted.
The patch in the transdermal drug delivery system consisted of 36% (w/w) glycerol, 15.3% PVP, 0.7% (w/w) gum Arabic, 9.5% (w/w) medium molecular weight chitosan, and 38.5% (w/w) lactic acid. The patch was prepared by casting the liquid matrix gel upon a suitable Teflon backing layer and drying for 5 hours at 80° C. The resulting diffusion profiles were obtained by conducting the same experiment three times. The patch samples indicate the number of times that the same experiment was conducted.
The percentage diffusion of 4-aminopyridine through the transdermal drug delivery system provided herein was measured over time, using different patch compositions. […] The patch was prepared by casting the liquid matrix gel upon a suitable Teflon backing layer and drying for 18 hours at 55° C.
The patch was prepared by casting the liquid matrix gel upon a suitable Teflon backing layer and drying for 3 hours at 80° C.
The patch was prepared by casting the liquid matrix gel upon a suitable Teflon backing layer and drying for 5 hours at 80° C.

[3] = Further experiments: permeation of small molecules through the patch matrix; details: molecules trapped in polymer matrix

Row | SMILES | diffusion of drug from the patch through skin simulating membrane over time (system permeable / impermeable) [1] | permeation into skin and bloodstream through the patch matrix [3] | further results
1 | Nc1ccncc1 [4-aminopyridine] | permeable | – | permeation and diffusion through patch over time ([2]; patch: 23% glycerol, 16% gum Arabic, 11% medium MW chitosan, 48% lactic acid, dried 18 hours at 55° C., FIG. 4): allows permeation and diffusion; permeation and diffusion through patch over time ([2]; patch: 36% glycerol, 15.3% PVP, 0.7% gum Arabic, 9.5% medium MW chitosan, 38.5% lactic acid, dried 5 hours at 80° C., FIG. 6): allows permeation and diffusion; permeation and diffusion through patch over time ([2]; patch: 50% glycerol, 14% PVP, 18% medium MW chitosan, 18% lactic acid, dried 3 hours at 80° C., FIG. 5): allows permeation and diffusion
2 | O=C1CCc2ccc(OCCCCN3CCN(c4cccc(Cl)c4Cl)CC3)cc2N1 [aripiprazole, Aripiprazole] | impermeable | – | –
3 | CC(NCCn1cnc2c1c(=O)n(C)c(=O)n2C)C(O)c1ccccc1 (stereo not shown) [cafedrine] | – | cannot permeate | –
4 | CN(C)CCC[C@@]1(c2ccc(F)cc2)OCc2cc(C#N)ccc21.O=C(O)C(=O)O [escitalopram oxalate, Escitalopram Oxalate] | permeable | – | –
5 | CC(Cc1ccccc1)NCCn1cnc2c1c(=O)n(C)c(=O)n2C (stereo not shown) [fenethylline] | – | cannot permeate | –
6 | CC(=O)CCCCn1c(=O)c2c(ncn2C)n(C)c1=O [pentoxifyline] | – | cannot permeate | –
7 | Cn1c(=O)c2c(ncn2CCNCC(O)c2ccc(O)c(O)c2)n(C)c1=O (stereo not shown) [theodrenaline] | – | cannot permeate | –
